# Assay results reported in patent US7956074B2, “Aryl-isoxazolo-4-yl-oxadiazole derivatives” (Hoffman-La Roche Inc., priority 2005, dated 2011).
# Target: T1, GABA A receptor α5β3γ2 (Homo sapiens, UniProt P18507+P31644)
# T1 construct: expressed in transfected cells; host or cells: HEK293 cells, transiently transfected; membranes prepared
# Experiment: [3H]flumazenil competition binding, human GABA A α5β3γ2
# Settings: competition for [3H]flumazenil (0.5 nM) binding, HEK293 cells expressing human (transiently transfected) α5β3γ2; means of two determinations; read-out: Ki[nM] hα5
# In short: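 HEK293 membranes expressing GABA-A receptors (human transiently, rat stably transfected) were used for [3H]flumazenil competition in Krebs-tris buffer, pH 7.5. Incubation ran 1 h at 4 °C to equilibrium, followed by filtration and scintillation counting. Ki values are means of two determinations.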
row,SMILES,Ki
1,"Cc1onc(-c2ccccc2)c1-c1nnc(-c2ccc(C#N)cc2)o1 [Example 57, 4-[5-(5-Methyl-3-phenyl-isoxazol-4-yl)-[1,3,4]oxadiazol-2-yl]-benzonitrile]",84.2 nM
2,"Cc1onc(-c2ccccc2)c1-c1nnc(-c2cccc(F)c2F)o1 [Example 84, 2-(2,3-Difluoro-phenyl)-5-(5-methyl-3-phenyl-isoxazol-4-yl)-[1,3,4]oxadiazole]",225 nM
3,"COc1cc(N2CCOCC2)ccc1-c1nnc(-c2c(-c3cccnc3)noc2C)o1 [Example 102, 4-{3-Methoxy-4-[5-(5-methyl-3-pyridin-3-yl-isoxazol-4-yl)-[1,3,4]oxadiazol-2-yl]-phenyl}-morpholine]",146 nM
4,"CNCc1onc(-c2ccccc2)c1-c1nnc(-c2ccc(F)cc2OC)o1 [Example 88, {4-[5-(4-Fluoro-2-methoxy-phenyl)-[1,3,4]oxadiazol-2-yl]-3-phenyl-isoxazol-5-ylmethyl}-methyl-amine]",339 nM
5,"Cc1onc(-c2ccccc2)c1-c1nnc(-c2ccc(C(=O)NC3CC3)cc2)o1 [Example 78, N-Cyclopropyl-4-[5-(5-methyl-3-phenyl-isoxazol-4-yl)-[1,3,4]oxadiazol-2-yl]-benzamide]",42.1 nM
6,"Cc1ccccc1-c1nnc(-c2c(-c3ccccc3)noc2C)o1 [Example 2, 2-(5-Methyl-3-phenyl-isoxazol-4-yl)-5-o-tolyl-[1,3,4]oxadiazole]",234 nM
7,"Cc1onc(-c2ccccc2)c1-c1nnc(-c2ccsc2)o1 [Example 122, 2-(5-Methyl-3-phenyl-isoxazol-4-yl)-5-thiophen-3-yl-[1,3,4]oxadiazole]",139 nM
8,"COc1cc(N2CCOCC2)ccc1-c1nnc(-c2conc2-c2ccc(F)cc2)o1 [Example 98, 4-(4-{5-[3-(4-Fluoro-phenyl)-isoxazol-4-yl]-[1,3,4]oxadiazol-2-yl}-3-methoxy-phenyl)-morpholine]",49 nM
9,"COc1cc(N2CCOCC2)ccc1-c1nnc(-c2c(-c3ccc(C(F)(F)F)cc3)noc2C)o1 [Example 103, 4-(3-Methoxy-4-{5-[5-methyl-3-(4-trifluoromethyl-phenyl)-isoxazol-4-yl]-[1,3,4]oxadiazol-2-yl}-phenyl)-morpholine]",47.6 nM
10,"COc1cccc(-c2nnc(-c3c(-c4ccccc4)noc3C)o2)c1 [Example 3, 2-(3-Methoxy-phenyl)-5-(5-methyl-3-phenyl-isoxazol-4-yl)-[1,3,4]oxadiazole]",391 nM
11,"Cc1onc(-c2ccccc2)c1-c1nnc(-c2ccccc2)o1 [Example 1, 2-(5-Methyl-3-phenyl-isoxazol-4-yl)-5-phenyl-[1,3,4]oxadiazole]",400 nM
12,"Cc1onc(-c2ccccc2)c1-c1nnc(-c2ccc3c(c2)n(C)c(=O)n3C)o1 [Example 51, 1,3-Dimethyl-5-[5-(5-methyl-3-phenyl-isoxazol-4-yl)-[1,3,4]oxadiazol-2-yl]-1,3-dihydro-benzoimidazol-2-one]",128 nM
13,"COc1cc(N2CCOCC2)ccc1-c1nnc(-c2conc2-c2ccccc2)o1 [Example 95, 4-{3-Methoxy-4-[5-(3-phenyl-isoxazol-4-yl)-[1,3,4]oxadiazol-2-yl]-phenyl}-morpholine]",44.5 nM
14,"Cc1onc(-c2ccccc2)c1-c1nnc(-c2cccc3cccnc23)o1 [Example 7, 8-[5-(5-Methyl-3-phenyl-isoxazol-4-yl)-[1,3,4]oxadiazol-2-yl]-quinoline]",40.6 nM
15,"CCOc1ccccc1-c1nnc(-c2c(-c3ccccc3)noc2C)o1 [Example 8, 2-(2-Ethoxy-phenyl)-5-(5-methyl-3-phenyl-isoxazol-4-yl)-[1,3,4]oxadiazole]",58.2 nM
16,"Cc1onc(-c2ccccc2)c1-c1nnc(-c2cccnc2Cl)o1 [Example 6, 2-Chloro-3-[5-(5-methyl-3-phenyl-isoxazol-4-yl)-[1,3,4]oxadiazol-2-yl]-pyridine]",146 nM
17,"Cc1onc(-c2ccccc2)c1-c1nnc(-c2cc(F)ccc2F)o1 [Example 83, 2-(2,5-Difluoro-phenyl)-5-(5-methyl-3-phenyl-isoxazol-4-yl)-[1,3,4]oxadiazole]",163 nM

# The next molecules have a lower Ki than those just listed; values first:
row,Ki,SMILES
1,21.2 nM,"COc1cc(NCc2ccccn2)c(F)cc1-c1nnc(-c2c(-c3ccccc3)noc2C)o1 [Example 131, {2-Fluoro-5-methoxy-4-[5-(5-methyl-3-phenyl-isoxazol-4-yl)-[1,3,4]oxadiazol-2-yl]-phenyl}-pyridin-2-ylmethyl-amine]"
2,7.5 nM,"COc1cc(-n2ccnc2)ccc1-c1nnc(-c2c(-c3ccccc3)noc2C)o1 [Example 33, 2-(4-Imidazol-1-yl-2-methoxy-phenyl)-5-(5-methyl-3-phenyl-isoxazol-4-yl)-[1,3,4]oxadiazole]"
3,10.2 nM,"COc1cc(N2CCSCC2)ccc1-c1nnc(-c2c(-c3ccccc3)noc2C)o1 [Example 26, 4-{3-Methoxy-4-[5-(5-methyl-3-phenyl-isoxazol-4-yl)-[1,3,4]oxadiazol-2-yl]-phenyl}-thiomorpholine]"
4,19.7 nM,"Cc1onc(-c2ccccc2)c1-c1nnc(-c2ccc(N3CCS(=O)(=O)CC3)cc2)o1 [Example 38, 4-{4-[5-(5-Methyl-3-phenyl-isoxazol-4-yl)-[1,3,4]oxadiazol-2-yl]-phenyl}-thiomorpholine 1,1-dioxide]"
5,31 nM,"COc1cc(C)ccc1-c1nnc(-c2c(-c3ccccc3)noc2C)o1 [Example 14, 2-(2-Methoxy-4-methyl-phenyl)-5-(5-methyl-3-phenyl-isoxazol-4-yl)-[1,3,4]oxadiazole]"
6,16.4 nM,"Cc1onc(-c2ccccc2)c1-c1nnc(-c2ccc(NC3CCOCC3)nc2)o1 [Example 139, {5-[5-(5-Methyl-3-phenyl-isoxazol-4-yl)-[1,3,4]oxadiazol-2-yl]-pyridin-2-yl}-(tetrahydro-pyran-4-yl)-amine]"
7,2.2 nM,"COc1cc(N2CCOCC2)ccc1-c1nnc(-c2c(-c3ccc(Cl)cc3)noc2C)o1 [Example 109, 4-(4-{5-[3-(4-Chloro-phenyl)-5-methyl-isoxazol-4-yl]-[1,3,4]oxadiazol-2-yl}-3-methoxy-phenyl)-morpholine]"
8,4.2 nM,"COc1cc(NC2CCOCC2)ccc1-c1nnc(-c2c(-c3ccccc3)noc2C)o1 [Example 64, {3-Methoxy-4-[5-(5-methyl-3-phenyl-isoxazol-4-yl)-[1,3,4]oxadiazol-2-yl]-phenyl}-(tetrahydro-pyran-4-yl)-amine]"
9,2.5 nM,"COc1cc(NCCO)c(F)cc1-c1nnc(-c2c(-c3ccccc3)noc2C)o1 [Example 129, 2-{2-Fluoro-5-methoxy-4-[5-(5-methyl-3-phenyl-isoxazol-4-yl)-[1,3,4]oxadiazol-2-yl]-phenylamino}-ethanol]"
10,11.6 nM,"COc1cc(NCC2CC2)ccc1-c1nnc(-c2c(-c3ccccc3)noc2C)o1 [Example 19, Cyclopropylmethyl-{3-methoxy-4-[5-(5-methyl-3-phenyl-isoxazol-4-yl)-[1,3,4]oxadiazol-2-yl]-phenyl}-amine]"
11,14.8 nM,"COc1ccc(OC)c(-c2nnc(-c3c(-c4ccccc4)noc3C)o2)c1 [Example 15, 2-(2,5-Dimethoxy-phenyl)-5-(5-methyl-3-phenyl-isoxazol-4-yl)-[1,3,4]oxadiazole]"
12,19.5 nM,"COc1cc(N2CCOCC2)ccc1-c1nnc(-c2c(-c3cccs3)noc2C)o1 [Example 110, 4-{3-Methoxy-4-[5-(5-methyl-3-thiophen-2-yl-isoxazol-4-yl)-[1,3,4]oxadiazol-2-yl]-phenyl}-morpholine]"
13,38.9 nM,"Cc1onc(-c2ccccc2)c1-c1nnc(-c2ccc(N)nc2)o1 [Example 48, 5-[5-(5-Methyl-3-phenyl-isoxazol-4-yl)-[1,3,4]oxadiazol-2-yl]-pyridin-2-ylamine]"
14,11.3 nM,"COc1cc(N2CCOCC2)ccc1-c1nnc(-c2c(-c3cccc(F)c3)noc2C)o1 [Example 108, 4-(4-{5-[3-(3-Fluoro-phenyl)-5-methyl-isoxazol-4-yl]-[1,3,4]oxadiazol-2-yl}-3-methoxy-phenyl)-morpholine]"
15,16.7 nM,"Cc1onc(-c2ccccc2)c1-c1nnc(-c2ccc(N3CC[S+]([O-])CC3)cc2)o1 [Example 39, 4-{4-[5-(5-Methyl-3-phenyl-isoxazol-4-yl)-[1,3,4]oxadiazol-2-yl]-phenyl}-thiomorpholine 1-oxide]"
